We go through 61 molecules from BindingDB's records for doi:10.1016/j.chembiol.2016.06.016 (Massachusetts Institute of Technology, 2016).

For assay [1], the target named is T1, Cytochrome b (Candida albicans, UniProt I2BJW5).
T1 sequence (I2BJW5 whole entry): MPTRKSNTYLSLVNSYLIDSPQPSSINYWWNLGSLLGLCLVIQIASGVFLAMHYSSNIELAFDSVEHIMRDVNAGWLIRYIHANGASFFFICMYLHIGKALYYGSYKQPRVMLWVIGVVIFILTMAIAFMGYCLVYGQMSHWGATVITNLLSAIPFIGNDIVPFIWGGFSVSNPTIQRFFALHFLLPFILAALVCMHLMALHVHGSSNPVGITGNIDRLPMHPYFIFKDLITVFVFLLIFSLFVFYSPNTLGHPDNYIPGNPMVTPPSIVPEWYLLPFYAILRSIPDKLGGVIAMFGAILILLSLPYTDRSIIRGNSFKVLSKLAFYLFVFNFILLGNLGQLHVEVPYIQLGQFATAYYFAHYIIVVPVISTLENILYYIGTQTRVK
In words: Cytochrome b Enzyme Assay. Particulars: pH 7.4; 25 °C. The method, then:
(§1) Reaction plates were incubated at room temperature for 10 min before reading absorbance at 550 nm. Absolute IC50 values were calculated in GraphPad Prism 6.0.

For assay [2], the target named is Cytochrome b (Homo sapiens, UniProt P00156). In words: Cytochrome b Enzyme Assay. The following applies: pH 7.4; 25 °C. The method, then:
as §1

Sequence of Cytochrome b (Homo sapiens, UniProt P00156) (P00156 whole entry): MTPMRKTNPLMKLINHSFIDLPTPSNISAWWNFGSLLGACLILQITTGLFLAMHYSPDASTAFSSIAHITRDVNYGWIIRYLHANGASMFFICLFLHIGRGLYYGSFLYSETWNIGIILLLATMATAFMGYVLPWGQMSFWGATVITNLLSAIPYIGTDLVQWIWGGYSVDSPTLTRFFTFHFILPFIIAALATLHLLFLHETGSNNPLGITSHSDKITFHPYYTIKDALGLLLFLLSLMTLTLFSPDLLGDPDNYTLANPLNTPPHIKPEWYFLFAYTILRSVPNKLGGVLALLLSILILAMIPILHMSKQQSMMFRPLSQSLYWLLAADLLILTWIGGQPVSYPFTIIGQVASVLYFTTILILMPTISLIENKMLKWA

What is called IC50 is the concentration that inhibits the measured activity by half. Low readings indicate higher potency, high ones lower potency. Regarding `COC(=O)Cn1nc(-c2cccc(OCCCC3CCCCC3)c2)c2ccccc21` [Inz-76], the IC50 against Cytochrome b [1] came out at 1.8 µM; at Cytochrome b [2], 5.46 µM.

On to `COC(=O)Cn1nc(-c2cccc(OCCN(C)C)c2)c2ccccc21` [Inz-63], for which the values for the IC50 at Cytochrome b [1] and on Cytochrome b [2] were 35.2 µM and > 64 µM, respectively.

Turning to `COC(=O)Cn1nc(-c2cccc(OCC(C)C)c2)c2ccccc21` [Inz-54], the IC50 amounted to 0.344 µM at Cytochrome b [1] and 9.23 µM against Cytochrome b [2].

As to `COC(=O)Cn1nc(-c2ccccc2C(F)(F)F)c2ccccc21` [Inz-51], the IC50 was 50.5 µM on Cytochrome b [1] and > 64 µM on Cytochrome b [2].

In the case of `CCOc1cccc(-c2nn(CC(=O)OC)c3ccccc23)c1` [Inz-40], the IC50 is 0.981 µM against Cytochrome b [1] and 28.1 µM against Cytochrome b [2].

With `COC(=O)Cn1nc(-c2cccc(OCc3ccccc3)c2F)c2ccccc21` [Inz-69], the IC50 against Cytochrome b [1] was 3.27 µM; against Cytochrome b [2], > 64 µM.

Regarding `COC(=O)Cn1nc(-c2cc(OCCCC3CCCCC3)ccc2F)c2ccccc21` [Inz-81], the figures for the half-inhibitory concentration (IC50) on Cytochrome b [1] and against Cytochrome b [2] were 0.129 µM and 2.43 µM, respectively.

With `COC(=O)Cn1nc(-c2cccc(Oc3ccccc3)c2)c2ccccc21` [Inz-7], the IC50 was 0.714 µM against Cytochrome b [1] and 9.97 µM on Cytochrome b [2].

On to `COC(=O)Cn1nc(-c2ccccc2F)c2ccccc21` [Inz-19], for which the IC50 was 2.97 µM against Cytochrome b [1] and 36 µM at Cytochrome b [2].

Consider `COC(=O)Cn1nc(-c2ccc(F)cc2F)c2ccccc21` [Inz-71], for which the IC50 against Cytochrome b [1] was 16.6 µM; at Cytochrome b [2] it was > 64 µM.

Turning to `COC(=O)Cn1nc(-c2ccccc2O)c2ccccc21` [Inz-52], the IC50 against Cytochrome b [1] is 3.57 µM; against Cytochrome b [2], > 64 µM.

Consider `Cc1cccc2c(-c3cc(OCCCC4CCCCC4)ccc3F)nn(Cc3nnn(C)n3)c12` [Inz-84], for which the IC50 on Cytochrome b [1] is 0.154 µM; at Cytochrome b [2], 2.92 µM.

Turning to `FC(F)Cn1nc(-c2ccccc2)c2ccccc21` [Inz-89], the half-maximal inhibitory concentration (IC50) against Cytochrome b [1] and against Cytochrome b [2] was > 64 µM in each case.

Consider `Fc1ccc(C(F)(F)F)cc1-c1nn(Cc2cnccn2)c2cccnc12` [Inz-99], for which the figures for the IC50 at Cytochrome b [1] and on Cytochrome b [2] were 17.7 µM and > 64 µM, respectively.

For the molecule `COC(=O)Cn1nc(-c2cccc(OCCc3ccccc3)c2)c2ccccc21` [Inz-8], the values for the half-inhibitory concentration (IC50) at Cytochrome b [1] and at Cytochrome b [2] were 0.346 µM and 13.9 µM, respectively.

On to `COC(=O)Cc1nn(-c2ccccc2)c2ccccc12` [Inz-104], for which the half-maximal inhibitory concentration (IC50) was 17.6 µM at Cytochrome b [1] and > 64 µM on Cytochrome b [2].

As to `COC(=O)Cn1nc(-c2cc(C(F)(F)F)ccc2F)c2ccccc21` [Inz-2], the figures for the IC50 at Cytochrome b [1] and at Cytochrome b [2] were 0.145 µM and 4.62 µM, respectively.

As to `COC(=O)Cn1nc(-c2ccccn2)c2ccccc21` [Inz-15], the 50% inhibitory concentration (IC50) against Cytochrome b [1] was 62.4 µM; on Cytochrome b [2], > 64 µM.

`COc1cccc2c(-c3cc(C(F)(F)F)ccc3F)nn(Cc3cnccn3)c12` [Inz-95]: the IC50 against Cytochrome b [1] was determined as 0.437 µM; at Cytochrome b [2] it was 15.2 µM.

As to `COC(=O)Cn1nc(-c2ccccc2Cl)c2ccccc21` [Inz-18], the IC50 on Cytochrome b [1] was 5.41 µM; against Cytochrome b [2] it was > 64 µM.

In the case of `CNC(=O)Cn1nc(-c2ccccc2)c2ccccc21` [Inz-25], the IC50 against Cytochrome b [1] and against Cytochrome b [2] was > 64 µM each time.

For `CCC(=O)Cn1nc(-c2cccc(OCc3ccccc3)c2)c2ccccc21` [Inz-43], the IC50 was 22.8 µM against Cytochrome b [1] and > 64 µM on Cytochrome b [2].

For the molecule `c1ccc(-c2nn(Cc3ccccn3)c3ccccc23)cc1` [Inz-85], the IC50 at Cytochrome b [1] and against Cytochrome b [2] was > 64 µM in each case.

Take `COC(=O)Cn1nc(-c2c(F)cccc2F)c2ccccc21` [Inz-59]: the IC50 against Cytochrome b [1] is 2.36 µM; against Cytochrome b [2], > 64 µM.

For `Cc1cccc2c(-c3cc(C(F)(F)F)ccc3F)nn(Cc3nnn(C)n3)c12` [Inz-5], the IC50 is 0.289 µM on Cytochrome b [1] and 6.51 µM against Cytochrome b [2].

For the molecule `Cn1cc(Cn2nc(-c3ccccc3)c3ccccc32)nn1` [Inz-35], the IC50 at Cytochrome b [1] and against Cytochrome b [2] was > 64 µM throughout.

Turning to `COC(=O)Cn1nc(-c2cc(C(F)(F)F)ccc2F)c2cc(C(F)(F)F)ccc21` [Inz-21], the IC50 against Cytochrome b [1] and on Cytochrome b [2] was > 64 µM throughout.

`CCCCCCC1C(=O)O[C@H](C)[C@H](NC(=O)c2cccc(NC=O)c2O)C(=O)O[C@@H](C)[C@@H]1OC(=O)CC(C)C` (stereo partly drawn) [[(2R,3S,6S,7R)-3-[(3-formamido-2-hydroxybenzoyl)amino]-8-hexyl-2,6-dimethyl-4,9-dioxo-1,5-dioxonan-7-yl] 3-methylbutanoate]: the IC50 against Cytochrome b [1] was 0.005 µM; against Cytochrome b [2] it was 0.007 µM.

As to `Cc1nc(Cn2nc(-c3ccccc3)c3ccccc32)no1` [Inz-77], the IC50 at Cytochrome b [1] and at Cytochrome b [2] was > 64 µM each time.

Turning to `Cc1cc(Cn2nc(-c3ccccc3)c3ccccc32)on1` [Inz-31], the IC50 against Cytochrome b [1] and against Cytochrome b [2] was > 64 µM throughout.

Take `COC(=O)CNc1ccccc1Oc1ccccc1` [Inz-86]: the IC50 against Cytochrome b [1] and against Cytochrome b [2] was > 64 µM in each case.

Regarding `COC(=O)Cn1nc(-c2cccc(F)c2)c2ccccc21` [Inz-70], the figures for the IC50 on Cytochrome b [1] and on Cytochrome b [2] were 5.91 µM and > 64 µM, respectively.

As for `c1ccc(-c2nn(Cc3cnccn3)c3ccccc23)cc1` [Inz-37], the IC50 at Cytochrome b [1] was 5.42 µM; against Cytochrome b [2], > 64 µM.

Consider `COC(=O)Cn1nc(-c2cccc(OCCC(C)(C)C)c2)c2ccccc21` [Inz-74], for which the IC50 on Cytochrome b [1] came out at 0.657 µM; at Cytochrome b [2], 4.72 µM.

As to `COC(=O)Cn1nc(-c2ccc(CCc3ccccc3)cc2)c2ccccc21` [Inz-53], the IC50 at Cytochrome b [1] was 43.4 µM; against Cytochrome b [2], > 64 µM.

As for `COC(=O)Cn1nc(-c2ccccc2C)c2ccccc21` [Inz-17], the figures for the IC50 at Cytochrome b [1] and at Cytochrome b [2] were 3.37 µM and > 64 µM, respectively.

Regarding `Brc1cccnc1Cn1nc(-c2ccccc2)c2ccccc21` [Inz-90], the IC50 against Cytochrome b [1] and against Cytochrome b [2] was > 64 µM each time.

Consider `Fc1ccc(C(F)(F)F)cc1-c1nn(Cc2cnccn2)c2ccccc12` [Inz-94], for which the results for the 50% inhibitory concentration (IC50) against Cytochrome b [1] and at Cytochrome b [2] were 0.449 µM and 35.1 µM, respectively.

As for `COC(=O)Cn1nc(-c2cccc(OCCC3CCCCC3)c2)c2ccccc21` [Inz-64], the concentration for half-maximal inhibition (IC50) against Cytochrome b [1] came out at 0.3 µM; against Cytochrome b [2], 3.23 µM.

For the molecule `Cn1nnc(Cn2nc(-c3ccccc3)c3ccccc32)n1` [Inz-34], the IC50 is 22.6 µM at Cytochrome b [1] and > 64 µM against Cytochrome b [2].

Consider `CCN(CC)CCOc1cccc(-c2nn(CC(=O)OC)c3ccccc23)c1` [Inz-65], for which the IC50 on Cytochrome b [1] was 13.8 µM; at Cytochrome b [2], > 64 µM.

As for `Fc1ccc(C(F)(F)F)cc1-c1nn(Cc2cnccn2)c2ncccc12` [Inz-97], the IC50 at Cytochrome b [1] is 0.935 µM; against Cytochrome b [2], 54.4 µM.

With `COC(=O)Cn1nc(-c2cccs2)c2ccccc21` [Inz-73], the IC50 against Cytochrome b [1] is 15.1 µM; on Cytochrome b [2] it was > 64 µM.

With `Cn1nnc(Cn2nc(-c3cc(OCCCC4CCCCC4)ccc3F)c3ccccc32)n1` [Inz-82], the IC50 against Cytochrome b [1] came to 0.614 µM; against Cytochrome b [2], 12.3 µM.

`COC(=O)Cn1nc(-c2cc(C(F)(F)F)ccc2F)c2cccc(C)c21` [Inz-4]: the IC50 against Cytochrome b [1] was found to be 0.026 µM; against Cytochrome b [2], 1.04 µM.

With `O=C1C(=O)c2ccccc2C(O)=C1C1CCC(c2ccc(Cl)cc2)CC1` (configuration not stated) [3-[4-(4-chlorophenyl)cyclohexyl]-4-hydroxynaphthalene-1,2-dione], the figures for the IC50 against Cytochrome b [1] and at Cytochrome b [2] were 3.79 µM and 1.88 µM, respectively.

As to `COC(=O)Cn1nc(-c2cccc(C#N)c2)c2ccccc21` [Inz-11], the IC50 on Cytochrome b [1] was 10.1 µM; on Cytochrome b [2] it was > 64 µM.

On to `COC(=O)Cn1nc(-c2cccc(O)c2)c2ccccc21` [Inz-41], for which the concentration for half-maximal inhibition (IC50) against Cytochrome b [1] was 44.1 µM; on Cytochrome b [2] it was > 64 µM.

Take `COC(=O)Cn1nc(-c2cccc(OCCC34CC5CC(CC(C5)C3)C4)c2)c2ccccc21` [Inz-75]: the values for the concentration for half-maximal inhibition (IC50) against Cytochrome b [1] and at Cytochrome b [2] were 1.14 µM and 1.08 µM, respectively.

Regarding `COC(=O)Cn1nc(-c2ccccc2)c2ccccc21` [Inz-1], the IC50 against Cytochrome b [1] came out at 8.09 µM; on Cytochrome b [2], 45.3 µM.

Consider `COC(=O)Cn1nc(-c2cccc(OCc3ccccc3)c2C)c2ccccc21` [Inz-66], for which the IC50 against Cytochrome b [1] is 1.08 µM; against Cytochrome b [2] it was > 64 µM.

As to `c1ccc(-c2nn(Cc3ncccn3)c3ccccc23)cc1` [Inz-36], the IC50 against Cytochrome b [1] and on Cytochrome b [2] was > 64 µM each time.

Consider `COC(=O)Cn1nc(-c2cc(C(F)(F)F)ccc2F)c2c(C(F)(F)F)cccc21` [Inz-22], for which the IC50 at Cytochrome b [1] was 46.8 µM; against Cytochrome b [2], > 64 µM.

With `COC(=O)Cn1nc(-c2ccccc2OC)c2ccccc21` [Inz-16], the values for the IC50 at Cytochrome b [1] and on Cytochrome b [2] were 22.9 µM and > 64 µM, respectively.

Regarding `COC(=O)Cn1nc(-c2cccc(F)c2F)c2ccccc21` [Inz-60], the IC50 on Cytochrome b [1] was 1.43 µM; against Cytochrome b [2], > 64 µM.

Take `N#Cc1cccc2c(-c3cc(C(F)(F)F)ccc3F)nn(Cc3cnccn3)c12` [Inz-96]: the IC50 against Cytochrome b [1] was 22.7 µM; at Cytochrome b [2], > 64 µM.

Turning to `COC(=O)Cn1nc(-c2ccsc2)c2ccccc21` [Inz-13], the IC50 at Cytochrome b [1] is 9.23 µM; against Cytochrome b [2] it was > 64 µM.

Regarding `c1ccc(COc2cccc(-c3n[nH]c4ccccc34)c2)cc1` [Inz-46], the IC50 against Cytochrome b [1] and on Cytochrome b [2] was > 64 µM in each case.

Regarding `c1ccc(-c2nn(Cc3nnco3)c3ccccc23)cc1` [Inz-72], the values for the IC50 on Cytochrome b [1] and at Cytochrome b [2] were 17.9 µM and > 64 µM, respectively.

Turning to `N#Cc1ncccc1Cn1nc(-c2ccccc2)c2ccccc21` [Inz-91], the IC50 on Cytochrome b [1] and against Cytochrome b [2] was > 64 µM each time.

Consider `COC(=O)Cn1nc(-c2cccc(CCc3ccccc3)c2)c2ccccc21` [Inz-45], for which the IC50 came out at 0.0663 µM against Cytochrome b [1] and 1.17 µM at Cytochrome b [2].
